Reference: patent US9963506B2, “Human-mouse chimeric anti-CD147 antibody with non-fucosylated glycosylation” (Fourth Military Medical University, priority 2015, dated 2018)

How the values were obtained:
[1] = biological target: T1, CD147^+ A549 cells (Homo sapiens, UniProt P35613); assay: Antigen-binding activity by flow cytometry
T1 construct: endogenous in cells; host or cells: A549 (human lung cancer cell line)
T1 sequence (P35613 22-269 isoform P35613-2 limits assumed): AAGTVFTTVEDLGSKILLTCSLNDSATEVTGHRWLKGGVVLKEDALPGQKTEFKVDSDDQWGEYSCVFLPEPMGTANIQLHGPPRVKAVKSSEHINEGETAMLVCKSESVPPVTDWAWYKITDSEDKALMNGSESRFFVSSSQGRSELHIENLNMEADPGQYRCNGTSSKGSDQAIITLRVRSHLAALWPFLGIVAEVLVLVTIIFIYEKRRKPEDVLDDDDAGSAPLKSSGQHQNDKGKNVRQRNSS
Description: The antibody concentration is 0.001 μg/mL, 0.01 μg/mL, 0.1 μg/mL, 1 μg/ml and 10 μg/mL, respectively.
A549 cells (10^6 cells) were incubated with the Metuzumab (HcHAb18) and cHAb18 antibody, respectively, in PBS with 0.1% BSA at 4° C. for 1 h. After three washes in PBS with 0.1% BSA, cells were incubated with the FITC-conjugated Rabbit anti-Human IgG Fc Secondary Antibody (Pierce) at 4° C. in the dark for 45 min. Cells were then washed three times and suspended in PBS for analysis using a FACS Calibur flow cytometer (BD, New Jersey, U.S.). Relative antigen expression is reported as median fluorescence intensity (MFI).

[2] = system: A549 cells; assay: Subcutaneous xenograft model, tumor growth inhibition; type: in vivo, SCID mice; settings: tail vein
Description: Mice injected with A549 cells subcutaneously in the right dorsal flank were treated by intravenous saline; 2 mg/kg Cisplatin and 100 mg/kg Gemcitabine; Metuzumab infusion at 2 mg/kg, 10 mg/kg and 30 mg/kg; combination of 10 mg/kg Metuzumab with 2 mg/kg Cisplatin and 100 mg/kg Gemcitabine; wherein the antibodies were injected twice weekly for 3 week consecutively, while the chemotherapeutic agents were injected once a week for 3 weeks consecutively. The tumors were measured twice a week.
Animals were housed in specific pathogen-free (SPF) condition. For the localized subcutaneous xenograft mouse model, 1×10^6 NCI-H520 or A549 cells, suspended in Hank's balanced salt solution were implanted in the right dorsal flank of male SCID mice (6-8 week old). When tumors reached a mean volume of 100 mm^3, mice were randomized into treatment cohorts (n=10 mice per group). Mice were grouped for different treatments, including Metuzumab treatment groups treated with 2 mg/kg, 10 mg/kg and 30 mg/kg Metuzumab; chemistry treatment group treated with 2 mg/kg Cisplatin and 100 mg/kg Gemcitabine; combination treatment group treated with 10 mg/kg Metuzumab with 2 mg/kg Cisplatin and 100 mg/kg Gemcitabine, or saline (control group) via tail vein, respectively. Antibody injections were administered twice weekly, for 3 weeks consecutively; chemotherapeutic agents were administered once a week, for 3 weeks consecutively. Tumor size was measured twice each week for the duration of the study using calipers. Tumor volumes were determined using the following formula: […]. Antitumor activity was assessed by calculating inhibition ratio of tumor volumes (IRTV) based on medians by using following formula: [1−average (Ttreatment (day x)−Ttreatment (day 0))/average (Tcontrol (day x)−Tcontrol (day 0))]×100%.

CD147-binding ability, Metuzumab compared with cHAb18 ([1]; FIG. 4): similar
Binding to CD147^+ A549 cells ([1]; FIG. 4, 0.001-10 μg/mL): bound
Substance: Metuzumab: human-mouse chimeric anti-CD147 IgG1, heavy chain SEQ ID NO: 4, light chain SEQ ID NO: 3, Mannose-5 glycoform lacking fucose and xylose
tumor volume inhibition rate ([2]; 2 mg/kg twice weekly for 3 weeks): 14.78%
tumor volume inhibition rate ([2]; 10 mg/kg twice weekly for 3 weeks): 26.52%
tumor volume inhibition rate ([2]; 30 mg/kg twice weekly for 3 weeks): 50.64%
